This passage reports kon, kd and ka results from patent US10444230B2, “Method and system for determination of molecular interaction parameters” (GE Healthcare Bio-Sciences AB, priority 2003, dated 2019).

Experiment [1] concerns the target T1, Carbonic anhydrase (Sigma C3640) (Bos taurus, UniProt P00921).
T1 construct: purchased Sigma C3640
The experiment can be described thus: SPR (BIACORE S51) sequential injection kinetics, inhibitors binding to immobilized carbonic anhydrase. The method, then: Kinetic analysis was performed by injecting inhibitors in 10 mM PBS buffer with 0.005% P20 and 5% DMSO at a flow of 30 μl/min.

Experiment [2] has as its target Thrombin (Sigma T 1063) (Homo sapiens, UniProt P00734). The settings on record: ligand densities approx. 2300 and 600 RU; 10 mM PBS, 0.005% P20, 5% DMSO, 3.4 mM EDTA.

T1 sequence (P00921 whole entry): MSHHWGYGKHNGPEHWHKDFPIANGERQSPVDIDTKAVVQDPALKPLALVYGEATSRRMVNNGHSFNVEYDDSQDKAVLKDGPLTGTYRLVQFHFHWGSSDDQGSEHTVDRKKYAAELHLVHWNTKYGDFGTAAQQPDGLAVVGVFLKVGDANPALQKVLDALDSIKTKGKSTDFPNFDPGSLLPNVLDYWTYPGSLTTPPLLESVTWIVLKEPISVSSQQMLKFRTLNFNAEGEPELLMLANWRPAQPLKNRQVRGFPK

Take `NS(=O)(=O)c1ccccc1` [benzenesulfonamide]: the kon in experiment [1] (read-out: ka) is 160000 M⁻¹ s⁻¹. The kd in experiment [1] (two ligand densities, approx. 2000 and 700 RU, 10 mM PBS, 0.005% P20, 5% DMSO) was 0.14 s⁻¹.

In experiment [2], `N=C(N)c1ccc(CNC(=O)[C@@H]2CCN2C(=O)[C@H](NCC(=O)O)C2CCCCC2)cc1` [melagatran] gave a ka of 2e+07 M⁻¹ s⁻¹ and a kd of 0.018 s⁻¹.
